Results on two compounds are retold here after patent publication US12496269B2, “Steamed Glycyrrhiza sp. extract with increased glycyrrhetinic acid contents and preparation method thereof” (LG Household & Health Care Ltd., priority 2021, dated 2025).

For one assay, the system named is Raw264.7 cells. The assay is described as follows: Anti-inflammatory effect by inhibition of NO production (lipopolysaccharide-stimulated). To be noted: positive control at 100 μM, lipopolysaccharide 500 ng/mL, 18 hours, vs control group. Type of assay: cell-based. As to the method: In order to examine the anti-inflammatory effect of the Glycyrrhiza sp. extract, 10 g of the Glycyrrhiza sp., which was not treated, steamed at 120° C., or roasted at 200° C. and steamed at 120° C., was extracted with 200 mL of 50% butylene glycol and filtered to prepare each extract.
To culture Raw264.7 cells, a mixture of DMEM (Dulbecco's Modified Eagle's Medium) and FBS (Fetal Bovine Serum) was used as a basic medium, and Raw264.7 cells were dispensed in a 24-well plate at a density of 1×10^5 cells/mL to 2×10^5 cells/mL and cultured for 24 hours. After removing the medium and starving with a serum-free medium for 12 hours, each extract was treated at a concentration of 1% in the cell culture solution. 30 minutes later, lipopolysaccharide was added at a concentration of 500 ng/mL, followed by culturing for 18 hours. As a control group, 50% butylene glycol was used. L-NMMA, which is a positive control, was treated at 100 μM. After culturing, the supernatant was taken and transferred to a 96-well plate, and GRIESS reagent was added and reacted at room temperature for 15 minutes. Absorbance at 540 nm was measured using an ELISA reader. The total amount of NO, of which production was inhibited as compared to the control group, was determined as the NO production inhibition rate (%), and the experiment was conducted in triplicate, and then the average value was calculated (Table 6).

The test system of the next assay is MNT-1 melanoma cells. The experiment in a line: Whitening effect by inhibition of melanin production. Type of assay: cell-based. Particulars: Homo sapiens, positive control at 200 μg/mL (200 ppm), 72 hours, vs control group, read-out: Melanin production inhibition rate (%). The protocol:
In order to examine the whitening effect of the Glycyrrhiza sp. extract, 10 g of the Glycyrrhiza sp., which was not treated, steamed at 120° C., or roasted at 200° C. and steamed at 120° C., was extracted with 200 mL of 50% butylene glycol and filtered to prepare each extract.
To culture MNT-1 melanoma cells, a mixture of DMEM (Dulbecco's Modified Eagle's Medium) and FBS (Fetal Bovine Serum) was used as a basic medium, and MNT-1 melanoma cells were dispensed in a 6-well plate at a density of 1×10^5 cells/mL to 2×10^5 cells/mL and cultured for 24 hours. Each extract was treated at a concentration of 0.1% in the cell culture solution, and then cultured for 72 hours. As a control group, 50% butylene glycol was used. Arbutin, which is a positive control, was treated at 200 μg/mL (200 ppm). […] Melanin in the precipitate was dissolved by adding 100 μL of 0.5 N sodium hydroxide solution and incubating for 12 hours, and absorbance at 450 nm was measured using an ELISA reader to measure the total amount of melanin produced. The total amount of melanin, of which production was inhibited as compared to the control group, was determined as the melanin production inhibition rate (%), and the experiment was conducted in triplicate, and then the average value was calculated (Table 5).

In the case of `CNC(=N)NCCC[C@H](N)C(=O)O` [L-NMMA], the “NO production inhibition rate (%)” value in the assay with Raw264.7 cells is 60.9%.

Turning to `OC[C@H]1O[C@@H](Oc2ccc(O)cc2)[C@H](O)[C@@H](O)[C@@H]1O` [Arbutin], the inhibition at 200 µg/mL with MNT-1 melanoma cells turned out to be 19.7%.
